Test results reported in PubChem BioAssay (NCI).
Values joined by “and” are separate entries in the source; they are usually repeats but may differ in a detail not shown here. Equal values may be shown once.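 Exposure lasted 48 hours, with cells grown in 96-well plates and compounds tested at five concentrations. The concentration for 50% growth inhibition is given as GI50. TGI: total growth inhibition.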

Tests used:
Experiment in all cases: NCI tumour cell line growth inhibition, 48 h
[1] = tested on: SF-539 CNS
[2] = tested on: MDA-MB-435
[3] = tested on: NCI-H522 lung
[4] = tested on: HCT-116 colon
[5] = tested on: UACC-257 melanoma
[6] = tested on: OVCAR-3 ovarian
[7] = tested on: HOP-62 NSCLC
[8] = tested on: NCI-H226 lung

SMILES	GI50 [1]	TGI [1]	GI50 [2]	TGI [2]	GI50 [3]	TGI [3]	GI50 [4]	TGI [4]	GI50 [5]	TGI [5]	GI50 [6]	TGI [6]	GI50 [7]	TGI [7]	GI50 [8]	TGI [8]
O=C(Nc1cnc(C(F)(F)F)cn1)c1cc(Cl)ccc1O	0.294 µM	7.91 µM	0.318 µM	3.23 µM	0.178 µM	0.768 µM	0.246 µM	1.4 µM	0.267 µM	0.781 µM	0.279 µM	20.3 µM	0.266 µM	2.35 µM	0.322 µM	23.9 µM
Nc1cc2cccc[n+]2c2cccc(Cl)c12	23 µM	71.2 µM	25.8 µM	72.2 µM	16.2 µM	78 µM	36.9 µM		11.3 µM	27.4 µM					18 µM	86 µM
COc1cc(/C=C/[N+](=O)[O-])cc(OC)c1OC	2.19 µM	4.36 µM	2.8 µM	10.2 µM	1.79 µM	3.57 µM	1.89 µM	3.56 µM	2.46 µM	9.83 µM	2.81 µM	6.63 µM	3.34 µM	13.6 µM	2.1 µM	5.5 µM
C[C@H]1c2ccccc2CN1CCCOc1cc2c(cc1OCC1CC1)C1(CCCC1)C(N)=N2	0.922 µM	1.89 µM	1.67 µM	5.76 µM	1.66 µM	6.62 µM	0.95 µM	2.26 µM	0.999 µM	2.13 µM	1.91 µM	6.86 µM	3.67 µM	10.2 µM	1.02 µM	2.9 µM
OCc1ccc(N2CCCC2)cc1Cl	> 58.7 µM	> 100 µM	> 100 µM	> 100 µM	14.5 µM	32.5 µM	1.6 µM	> 100 µM	0.338 µM	1.28 µM	2.18 µM	7.25 µM	10.2 µM	> 100 µM	0.146 µM	0.365 µM
O=C(NN1C(=O)CSC1c1ccc(F)cc1)C(O)c1ccccc1 (stereo not drawn)	> 100 µM	> 100 µM	> 100 µM	> 100 µM	93.6 µM	> 100 µM	> 100 µM	> 100 µM	> 100 µM	> 100 µM	79.5 µM	> 100 µM	> 100 µM	> 100 µM	> 100 µM	> 100 µM
C=CCn1c(=O)c2cnc(Nc3ccc(N4CCN(C)CC4)cc3)nc2n1-c1cccc(C(C)(C)O)n1	0.161 µM and 0.287 µM	2.3 µM and 1.15 µM	0.201 µM and 0.247 µM	0.561 µM and 0.666 µM	0.176 µM and 0.293 µM	0.645 µM and 2.08 µM	0.321 µM and 0.328 µM	11.4 µM and > 10 µM	0.675 µM and > 4.69 µM	18.7 µM and > 10 µM	0.241 µM and 0.331 µM	0.9 µM and 1.47 µM	1.4 µM and 0.802 µM	14.4 µM and > 10 µM	0.456 µM and 1.9 µM	5.95 µM and > 7.68 µM
COc1ccc2c(c1)C(=O)c1c-2n(CCCN)c(=O)c2cc([N+](=O)[O-])ccc12	< 0.01 µM	< 0.01 µM	3.3 µM	19.5 µM	< 0.01 µM	2.91 µM	< 0.01 µM	0.0119 µM	< 0.01 µM	0.736 µM	2.79 µM	15.9 µM	< 0.01 µM	0.0234 µM	< 0.01 µM	< 0.01 µM
CC1=C(Cl)C[C@@H](/C(C)=C\Cl)O[C@@]1(O)C(Br)Br		> 100 µM		> 100 µM		49.3 µM		> 100 µM		> 100 µM		31.3 µM		> 100 µM		
CC(=O)O.CC(=O)O.CC(=O)O.CC(=O)O.[Rh].[Rh]	26.4 µM	88.4 µM	21.7 µM	55.4 µM			24.1 µM	94.1 µM	19.5 µM	64.8 µM	26.1 µM	> 100 µM	28.8 µM	84.3 µM	22 µM	99.2 µM
C=CCCCOC1[C@H](OCc2ccccc2)C(OCc2ccccc2)C(OC)O[C@@H]1CNC(=O)c1cccc(I)c1 (stereo partly drawn)	4.38 µM	76.4 µM	5.31 µM	> 100 µM	33 µM	> 100 µM	4.3 µM	> 100 µM	8.82 µM	> 100 µM	6.46 µM	> 100 µM	> 100 µM	> 100 µM	21.9 µM	> 100 µM
NCCC(=O)NC(Cc1cnc[nH]1)C(=O)O (stereo not drawn)		> 100 µM		> 100 µM		> 100 µM		> 100 µM		> 100 µM		> 100 µM		> 100 µM		> 100 µM
O=C1CSC(c2ccccc2O)N1c1nnc(Cn2ccnc2)o1 (stereo not drawn)	8.83 µM	68.5 µM	2.35 µM	8.55 µM	12 µM	33 µM	9.86 µM	43.7 µM	16 µM	40.6 µM	3.04 µM	16.4 µM	17.6 µM	> 100 µM	37.2 µM	> 100 µM
Cc1ccc(Sc2oc(-c3ccc(C)cc3)nc2[P+](c2ccccc2)(c2ccccc2)c2ccccc2)cc1	0.404 µM	1.53 µM	0.336 µM	1.2 µM	0.148 µM	0.379 µM	0.26 µM	1.26 µM	0.303 µM	1.15 µM	0.359 µM	1.33 µM				
COc1ccc(Oc2ccccc2NC(=O)CNC(=O)c2cccc3ccccc23)cc1					0.193 µM	> 25 µM	0.61 µM	> 25 µM	> 25 µM	> 25 µM	0.387 µM	> 25 µM	0.717 µM	> 25 µM	4.3 µM	> 25 µM
COc1cc2c(cc1-c1coc3cc(OCC=C(C)C)ccc3c1=O)OCO2		> 100 µM		> 100 µM		48.9 µM		51.4 µM		> 100 µM		> 100 µM		89.1 µM		
CCN(CC)C(=O)COc1cc2c(O)c3c(O)c(C)c4c(c13)C(=O)C(C)(OC=CC(OC)C(C)C(OC(C)=O)C(C)C(O)C(C)C(O)C(C)C=CC=C(C)C(=O)N2)O4 (stereo not drawn)								> 100 µM		> 100 µM		> 100 µM		> 100 µM		> 100 µM
COc1cc(C2CC(=O)Nc3c2cc(Br)c2ccccc32)cc(Br)c1OC (stereo not drawn)	3.27 µM	> 58.6 µM	0.247 µM	0.864 µM			0.602 µM	2.44 µM	12.6 µM	> 100 µM	1.14 µM	2.52 µM	1.45 µM	3.9 µM	2.34 µM	5.57 µM
COc1ccc2c(c1)/C(=C\c1c[nH]c3ccc(OC)cc13)C(=O)N2	3.95 µM	15.6 µM	0.877 µM	5.17 µM	2.27 µM	7.76 µM	2.45 µM	10.6 µM			3.65 µM	13.6 µM	2.72 µM	12.5 µM	4.59 µM	25.6 µM
CC/C=C\C/C=C/C=C1/C(=O)C=C[C@@H]1C/C=C\CCCC(=O)OC	3.04 µM	10 µM	2.05 µM	5.08 µM	1.78 µM	4.24 µM	0.631 µM	2.43 µM	3.27 µM	11.4 µM	1.54 µM	6.35 µM	2.45 µM	5.73 µM		
CC1(C)CC2=C(Sc3ccccc3N2)C(=O)C1C(=O)C(=O)Nc1cc(Cl)ccc1Cl (stereo not drawn)		> 100 µM		> 100 µM		> 100 µM		> 100 µM		> 100 µM		> 100 µM				> 100 µM
COc1ccc2c(c1)C(=O)c1c-2c(N2CCNCC2)nc2ccccc12	3.8 µM	12.7 µM	4.93 µM	17.9 µM	3.95 µM	17 µM			2.38 µM	5.11 µM	13 µM	30 µM			10.9 µM	28.9 µM
Clc1ccccc1NN(Cc1ccncc1)c1ccccc1Cl		36 µM		29.7 µM		29.6 µM		25.7 µM				26.3 µM		29.2 µM		39.3 µM
Cc1c2ccncc2c(C)c2c1c1cc(CO)ccc1n2C	0.73 µM	4.2 µM	0.467 µM	3.74 µM	0.661 µM	3.81 µM	0.175 µM	1.66 µM			0.498 µM	2.32 µM	0.335 µM	2.05 µM		
NC(=O)c1cccc(-c2cc(C(N)=O)ccc2Cl)c1	1.65 µM	4.85 µM			2.39 µM	23.2 µM	2.35 µM	> 100 µM	25.9 µM	> 100 µM	2.36 µM	37.5 µM	3.51 µM	> 100 µM	13.4 µM	> 100 µM
Cc1oc2c(c1C(=O)N1CC[C@@H](N)C1)C(=O)c1c(c(O)c3ccccc3c1O)C2=O	2.55 µM	11.7 µM	2.58 µM	10.1 µM	1.39 µM	4.77 µM	1.28 µM	4.59 µM			2.68 µM	9.5 µM	0.51 µM	4.11 µM	1.52 µM	22.6 µM
CCN(CC)CCC(CNc1c(C)cnc2cc(Cl)ccc12)c1ccc(Cl)cc1 (stereo not drawn)	1.63 µM	3.31 µM			4.43 µM	17.3 µM					11.9 µM	25.5 µM	10.6 µM	23.8 µM	16 µM	31.5 µM
